Measurements from patent US7063946B2, “Methods, reagents, kits and apparatus for protein function analysis” (Meso Scale Technologies, LLC., priority 2001, dated 2006).

How the values were obtained:
Type in all cases: biochemical
Kit = target: T1, Kit (Mus musculus, UniProt P05532); assay: Kinase inhibitor profiling, autophosphorylation
T1 construct: specificity data for proteins generated from a library of eighteen full-length clones; biotin on random lysines (biotin-Lys-tRNA); host or cells: rabbit reticulocyte lysate, coupled transcription/translation (TnT, Promega)
T1 sequence (P05532 25-979): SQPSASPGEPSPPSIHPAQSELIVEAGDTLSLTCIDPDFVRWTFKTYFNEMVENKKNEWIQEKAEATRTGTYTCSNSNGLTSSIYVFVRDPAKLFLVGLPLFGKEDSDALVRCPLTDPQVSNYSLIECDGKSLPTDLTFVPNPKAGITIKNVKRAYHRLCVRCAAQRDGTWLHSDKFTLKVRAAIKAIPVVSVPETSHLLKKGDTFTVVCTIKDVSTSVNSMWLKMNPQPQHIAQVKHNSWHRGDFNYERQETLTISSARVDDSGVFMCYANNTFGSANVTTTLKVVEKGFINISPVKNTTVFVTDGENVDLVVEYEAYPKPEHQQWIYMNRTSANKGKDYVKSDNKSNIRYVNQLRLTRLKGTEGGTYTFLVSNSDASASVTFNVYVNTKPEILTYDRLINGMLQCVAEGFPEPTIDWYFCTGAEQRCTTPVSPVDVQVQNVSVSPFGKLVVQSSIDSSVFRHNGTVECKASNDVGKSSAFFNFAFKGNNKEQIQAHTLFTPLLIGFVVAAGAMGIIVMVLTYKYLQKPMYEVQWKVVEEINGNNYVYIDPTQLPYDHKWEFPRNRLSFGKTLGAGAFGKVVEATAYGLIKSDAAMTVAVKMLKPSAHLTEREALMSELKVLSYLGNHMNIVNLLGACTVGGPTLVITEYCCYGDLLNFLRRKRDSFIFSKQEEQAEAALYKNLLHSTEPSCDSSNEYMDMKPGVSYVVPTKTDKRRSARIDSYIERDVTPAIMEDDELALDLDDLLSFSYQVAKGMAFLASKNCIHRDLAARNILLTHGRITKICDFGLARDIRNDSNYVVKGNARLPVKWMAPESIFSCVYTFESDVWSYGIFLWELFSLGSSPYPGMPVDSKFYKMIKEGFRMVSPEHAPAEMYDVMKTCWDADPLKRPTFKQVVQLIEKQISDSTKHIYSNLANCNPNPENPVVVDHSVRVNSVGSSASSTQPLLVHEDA

CSK = target: T2, CSK (Homo sapiens, UniProt P41240); assay: Kinase inhibitor profiling, pEY phosphorylation
T2 construct: specificity data for proteins generated from a library of eighteen full-length clones; host or cells: rabbit reticulocyte lysate, TnT coupled in vitro transcription/translation (cell-free)
T2 sequence (P41240 whole entry): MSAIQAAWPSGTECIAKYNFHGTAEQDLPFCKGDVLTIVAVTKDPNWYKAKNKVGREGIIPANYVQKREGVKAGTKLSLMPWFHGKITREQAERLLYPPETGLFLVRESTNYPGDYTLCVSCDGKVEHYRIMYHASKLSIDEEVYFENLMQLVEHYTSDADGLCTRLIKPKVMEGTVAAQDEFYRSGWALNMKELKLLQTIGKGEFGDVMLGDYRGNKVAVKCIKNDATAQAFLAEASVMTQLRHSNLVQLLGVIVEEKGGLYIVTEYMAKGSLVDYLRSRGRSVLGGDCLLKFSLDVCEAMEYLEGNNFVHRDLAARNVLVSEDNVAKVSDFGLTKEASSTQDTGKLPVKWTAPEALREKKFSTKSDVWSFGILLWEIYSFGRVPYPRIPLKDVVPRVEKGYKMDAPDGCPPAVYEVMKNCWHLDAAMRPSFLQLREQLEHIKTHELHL

Tek = target: T3, Tek (Mus musculus, UniProt Q02858); assay: Kinase inhibitor profiling, pEY phosphorylation
T3 construct: specificity data for proteins generated from a library of eighteen full-length clones; host or cells: rabbit reticulocyte lysate, TnT coupled in vitro transcription/translation (cell-free)
T3 sequence (Q02858 23-1122): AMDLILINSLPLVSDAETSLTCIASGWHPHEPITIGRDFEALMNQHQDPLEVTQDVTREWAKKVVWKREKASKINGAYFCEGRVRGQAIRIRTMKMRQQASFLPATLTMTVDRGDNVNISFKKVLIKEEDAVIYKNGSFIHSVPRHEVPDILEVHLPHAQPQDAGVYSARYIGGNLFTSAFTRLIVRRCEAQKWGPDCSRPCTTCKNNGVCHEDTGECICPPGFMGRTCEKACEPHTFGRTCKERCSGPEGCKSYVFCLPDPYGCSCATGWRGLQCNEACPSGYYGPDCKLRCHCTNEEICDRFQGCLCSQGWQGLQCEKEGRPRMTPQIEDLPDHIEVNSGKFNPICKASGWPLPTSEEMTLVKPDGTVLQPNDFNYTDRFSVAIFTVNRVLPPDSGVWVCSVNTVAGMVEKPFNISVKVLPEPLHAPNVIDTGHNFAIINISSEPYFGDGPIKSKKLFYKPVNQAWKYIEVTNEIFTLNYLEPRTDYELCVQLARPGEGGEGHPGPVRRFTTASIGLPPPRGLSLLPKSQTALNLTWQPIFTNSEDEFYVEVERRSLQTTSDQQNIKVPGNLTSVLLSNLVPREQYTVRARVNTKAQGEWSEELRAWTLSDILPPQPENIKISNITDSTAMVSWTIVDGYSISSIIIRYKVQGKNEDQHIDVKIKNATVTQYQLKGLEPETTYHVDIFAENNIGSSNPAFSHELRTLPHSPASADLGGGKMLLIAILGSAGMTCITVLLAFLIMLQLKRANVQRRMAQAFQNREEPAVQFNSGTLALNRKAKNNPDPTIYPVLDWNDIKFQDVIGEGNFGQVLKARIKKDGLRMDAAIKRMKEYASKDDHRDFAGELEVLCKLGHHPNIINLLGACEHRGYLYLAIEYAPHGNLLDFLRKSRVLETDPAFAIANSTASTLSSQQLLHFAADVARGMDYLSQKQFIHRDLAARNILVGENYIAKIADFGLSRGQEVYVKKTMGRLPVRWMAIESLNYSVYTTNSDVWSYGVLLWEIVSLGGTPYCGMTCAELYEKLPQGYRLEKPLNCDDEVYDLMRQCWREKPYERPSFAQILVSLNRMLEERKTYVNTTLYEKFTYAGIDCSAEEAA

SYK = target: T4, SYK (Homo sapiens, UniProt P43405); assay: Kinase inhibitor profiling, pEY phosphorylation
T4 construct: autophosphorylation activity from full-length clones Spleen Tyrosine Kinase (SYK) and Eph receptor-A7 (EphA7); host or cells: rabbit reticulocyte lysate, TnT coupled in vitro transcription/translation (cell-free)

HCK = target: T5, HCK (Homo sapiens, UniProt P08631); assay: Kinase inhibitor profiling, pEY phosphorylation
T5 construct: specificity data for proteins generated from a library of eighteen full-length clones; host or cells: rabbit reticulocyte lysate, TnT coupled in vitro transcription/translation (cell-free)
T5 sequence (P08631 whole entry): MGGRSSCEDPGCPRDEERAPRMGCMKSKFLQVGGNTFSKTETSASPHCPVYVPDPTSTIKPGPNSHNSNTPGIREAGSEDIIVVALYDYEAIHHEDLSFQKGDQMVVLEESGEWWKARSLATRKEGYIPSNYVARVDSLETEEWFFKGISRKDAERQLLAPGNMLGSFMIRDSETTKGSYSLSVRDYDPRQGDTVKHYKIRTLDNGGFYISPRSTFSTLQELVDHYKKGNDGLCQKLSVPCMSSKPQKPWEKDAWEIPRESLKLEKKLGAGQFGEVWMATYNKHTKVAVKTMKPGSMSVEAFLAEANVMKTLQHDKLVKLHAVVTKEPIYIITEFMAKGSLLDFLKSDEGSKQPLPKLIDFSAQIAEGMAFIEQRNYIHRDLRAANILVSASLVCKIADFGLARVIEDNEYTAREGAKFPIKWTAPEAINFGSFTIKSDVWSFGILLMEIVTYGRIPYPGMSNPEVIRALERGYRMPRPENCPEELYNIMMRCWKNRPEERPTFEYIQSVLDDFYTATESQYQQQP

SRC = target: T6, SRC (Mus musculus, UniProt P05480); assay: Kinase inhibitor profiling, pEY phosphorylation
T6 construct: specificity data for proteins generated from a library of eighteen full-length clones; host or cells: rabbit reticulocyte lysate, TnT coupled transcription/translation
T6 sequence (P05480 whole entry): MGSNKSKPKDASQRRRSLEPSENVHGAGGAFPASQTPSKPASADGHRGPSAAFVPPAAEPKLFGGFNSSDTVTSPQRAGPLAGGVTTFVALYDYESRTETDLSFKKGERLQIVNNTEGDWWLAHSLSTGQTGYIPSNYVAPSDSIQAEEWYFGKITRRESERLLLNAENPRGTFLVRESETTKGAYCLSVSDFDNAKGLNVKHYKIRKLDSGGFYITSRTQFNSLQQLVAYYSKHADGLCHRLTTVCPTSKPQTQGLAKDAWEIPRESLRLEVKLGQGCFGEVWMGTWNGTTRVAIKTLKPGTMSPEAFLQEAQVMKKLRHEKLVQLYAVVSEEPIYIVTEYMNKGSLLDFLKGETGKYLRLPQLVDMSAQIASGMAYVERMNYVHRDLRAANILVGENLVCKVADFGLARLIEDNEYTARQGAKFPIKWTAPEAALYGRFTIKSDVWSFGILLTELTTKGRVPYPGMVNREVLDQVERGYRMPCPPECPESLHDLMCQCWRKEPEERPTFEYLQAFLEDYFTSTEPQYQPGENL

Epha7 = target: T7, Epha7 (Mus musculus, UniProt Q61772); assay: Kinase inhibitor profiling, pEY phosphorylation
T7 construct: autophosphorylation activity from full-length clones Spleen Tyrosine Kinase (SYK) and Eph receptor-A7 (EphA7); host or cells: rabbit reticulocyte lysate, TnT coupled in vitro transcription/translation (cell-free)
T7 sequence (Q61772 28-998): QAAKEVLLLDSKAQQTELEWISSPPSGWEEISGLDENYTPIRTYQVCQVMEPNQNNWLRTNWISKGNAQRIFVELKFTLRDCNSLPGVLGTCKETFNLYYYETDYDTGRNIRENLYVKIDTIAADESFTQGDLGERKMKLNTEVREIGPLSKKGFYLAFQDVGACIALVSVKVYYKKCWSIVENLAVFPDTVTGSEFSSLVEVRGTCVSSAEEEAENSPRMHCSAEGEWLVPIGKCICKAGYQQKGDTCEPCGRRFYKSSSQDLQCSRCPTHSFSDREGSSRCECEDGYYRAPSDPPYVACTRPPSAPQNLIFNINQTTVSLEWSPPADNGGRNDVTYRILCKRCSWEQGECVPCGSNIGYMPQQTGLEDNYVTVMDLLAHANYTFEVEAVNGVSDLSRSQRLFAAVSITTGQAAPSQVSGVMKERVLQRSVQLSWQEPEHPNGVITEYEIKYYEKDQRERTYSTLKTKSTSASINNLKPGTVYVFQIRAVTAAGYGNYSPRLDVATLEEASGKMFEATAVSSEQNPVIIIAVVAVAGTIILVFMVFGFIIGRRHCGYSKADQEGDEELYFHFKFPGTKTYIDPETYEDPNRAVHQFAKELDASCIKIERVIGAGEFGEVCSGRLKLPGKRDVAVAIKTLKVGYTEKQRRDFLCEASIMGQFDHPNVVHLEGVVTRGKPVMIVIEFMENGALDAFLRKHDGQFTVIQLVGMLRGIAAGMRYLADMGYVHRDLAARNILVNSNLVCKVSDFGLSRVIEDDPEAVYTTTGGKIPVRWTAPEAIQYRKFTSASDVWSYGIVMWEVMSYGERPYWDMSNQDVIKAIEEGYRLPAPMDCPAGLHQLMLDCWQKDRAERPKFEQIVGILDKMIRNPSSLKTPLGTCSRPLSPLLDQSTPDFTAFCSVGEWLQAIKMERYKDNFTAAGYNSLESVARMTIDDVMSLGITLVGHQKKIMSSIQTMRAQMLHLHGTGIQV

COC(=O)c1ccc(NCc2cc(O)ccc2O)cc1 [AG-957]
Inhibition specificity towards Autophosphorylation at 10X IC50, Kit (Kit): L (low inhibition (“L”=between 50–75% of the activity remaining)) | Inhibition specificity towards pEY phosphorylation at 10X IC50, CSK (CSK): M (medium inhibition (“M”=between 25 to 50% of the activity remaining)) | Inhibition specificity towards pEY phosphorylation at 10X IC50, Tek (Tek): L (low inhibition (“L”=between 50–75% of the activity remaining))

CC(C)(C)c1cc(C=C(C#N)C#N)cc(Br)c1O [AG-1024]
Inhibition specificity towards pEY phosphorylation at 10X IC50, SYK (SYK): L (low inhibition (“L”=between 50–75% of the activity remaining)) | Inhibition specificity towards pEY phosphorylation at 10X IC50, Tek (Tek): L (low inhibition (“L”=between 50–75% of the activity remaining))

Cc1cc2ncc(-c3ccc(O)c(O)c3)nc2cc1C [AG-1433]
Inhibition specificity towards Autophosphorylation at 10X IC50, Kit (Kit): H (high inhibition (“H”=less than 25% of the activity remaining)) | Inhibition specificity towards pEY phosphorylation at 10X IC50, SYK (SYK): M (medium inhibition (“M”=between 25 to 50% of the activity remaining)) | Inhibition specificity towards pEY phosphorylation at 10X IC50, CSK (CSK): M (medium inhibition (“M”=between 25 to 50% of the activity remaining)) | Inhibition specificity towards pEY phosphorylation at 10X IC50, HCK (HCK): M (medium inhibition (“M”=between 25 to 50% of the activity remaining)) | Inhibition specificity towards pEY phosphorylation at 10X IC50, Src (SRC): H (high inhibition (“H”=less than 25% of the activity remaining)) | Inhibition specificity towards pEY phosphorylation at 10X IC50, Epha7 (Epha7): L (low inhibition (“L”=between 50–75% of the activity remaining)) | Inhibition specificity towards pEY phosphorylation at 10X IC50, Tek (Tek): M (medium inhibition (“M”=between 25 to 50% of the activity remaining))

COc1c(C=O)c(O)cc2c1C(=O)c1ccccc1C2=O [Damnacanthal]
Inhibition specificity towards Autophosphorylation at 10X IC50, Kit (Kit): H (high inhibition (“H”=less than 25% of the activity remaining)) | Inhibition specificity towards pEY phosphorylation at 10X IC50, SYK (SYK): H (high inhibition (“H”=less than 25% of the activity remaining)) | Inhibition specificity towards pEY phosphorylation at 10X IC50, CSK (CSK): H (high inhibition (“H”=less than 25% of the activity remaining)) | Inhibition specificity towards pEY phosphorylation at 10X IC50, HCK (HCK): H (high inhibition (“H”=less than 25% of the activity remaining)) | Inhibition specificity towards pEY phosphorylation at 10X IC50, Src (SRC): H (high inhibition (“H”=less than 25% of the activity remaining)) | Inhibition specificity towards pEY phosphorylation at 10X IC50, Epha7 (Epha7): H (high inhibition (“H”=less than 25% of the activity remaining)) | Inhibition specificity towards pEY phosphorylation at 10X IC50, Tek (Tek): M (medium inhibition (“M”=between 25 to 50% of the activity remaining))

COc1cc2ncnc(Nc3ccc(O)cc3)c2cc1OC [WHI-P131]
Inhibition specificity towards Autophosphorylation at 10X IC50, Kit (Kit): L (low inhibition (“L”=between 50–75% of the activity remaining)) | Inhibition specificity towards pEY phosphorylation at 10X IC50, HCK (HCK): L (low inhibition (“L”=between 50–75% of the activity remaining)) | Inhibition specificity towards pEY phosphorylation at 10X IC50, Src (SRC): L (low inhibition (“L”=between 50–75% of the activity remaining)) | Inhibition specificity towards pEY phosphorylation at 10X IC50, Epha7 (Epha7): L (low inhibition (“L”=between 50–75% of the activity remaining)) | Inhibition specificity towards pEY phosphorylation at 10X IC50, Tek (Tek): L (low inhibition (“L”=between 50–75% of the activity remaining))

Erbstatin analog
Inhibition specificity towards Autophosphorylation at 10X IC50, Kit (Kit): L (low inhibition (“L”=between 50–75% of the activity remaining))
